pKi: −log10 of the molar value. “And” between values parts separate entries of the source, which are not always exact repeats. Equal values may be shown once.
Key:
oxytocin receptors = conditions: read-out: OT; cited from earlier work
[1] = molecular target: vasopressin V1a receptors (Rattus norvegicus, UniProt P30560); conditions: cited from earlier work
[2] = Plasma concentration in the copulatory behaviour study; type: in vivo, rat; conditions: 0.05 mgkg^-1 sc, rats
[3] = system: copulatory behaviour in conscious rats; assay: Copulatory behaviour in conscious rats (ejaculatory latency); type: in vivo, rat; conditions: 0.05 mgkg^-1 sc
Protocol: For all the sexual behavour tests, the male rats were placed in an observation arena (50-60 cm diameter), starting 5 hours into the dark cycle and observed under red ilumination. Three to four minutes after placing the male in the arena, a receptive female (ovariectomised, oestradiol benzoate/progesterone injection 48 hour before behavioural study) was introduced into the arena and the following parameters noted: • i) ejaculatory latency (EJL; time taken from addition of receptive female into the arena to ejaculation); • ii) copulatory efficiency (CE; ejaculatory latency/the number of ihtromissions to ejaculation, i.e. the number of seconds between intromissions); • iii) intromission frequency (IF; the number of intromissions to ejaculation); • iv) mount frequency (MF; the number of mounts to ejaculation); • v) post ejaculatory interval (PEI; the time taken from ejaculation to the commencement of copulatory behaviour).
Rodent copulatory behaviour is characterised by a series of mounts, with and without vaginal insertion (50-80% of mounts result in intromission [vaginal penetration]) and ejaculation occurs after 6 to 12 intromissions. Each intromission lasts a matter of seconds—it is not possible to quantify intromission length i.e. intravaginal latency. The effect of L-371257 was assessed on a number of copulatory parameters (see above). We have focused ejaculatory latency as a clinical biomarker of time taken to achieve ejaculation.

[4] = system: PCA-induced ejaculation in anaesthetised rats; assay: p-chloroamphetamine (PCA)-induced ejaculation and penile erection in anaesthetised rats; type: in vivo, rat
Protocol: In order to study penile; erection and ejaculation the method used was based on the methodology taught in Yonezawa et al. (2000) Life Sciences 67, 3031-3039. For ease of reference, this methodology is described below:
Male Sprague Dawley rats, weighing 350-450 g, are used. Prior to the experiments the animals are housed in groups (2 rats per cage) under controlled 12 h light-dark cycle (lights on at 07:00), constant temperature (23±1° C.) and humidity (55±5%). They have free access to standard food pellets and water.
Rats are anesthestised with sodium pentobarbitone (50 mg/kg, i.p.) and are placed in the supine position. The penis is extruded from its sheath and gently held by a wooden applicator positioned at the base of the penis. The test compounds are administered by intravenous infusion and p-chloroamphetamine (PCA) (5-10 mg/kg) is administered i.p. immediately before the sheath retraction and the penile responses, including penile erection, redding and expansion of the penile body, glans erection, engorgement and slight flaring of the glans and cup, glans erection with intense flaring of the glans, are recorded. Latencies from PCA administration to the initial penile response and ejaculation is also measured in seconds.
The effect of a test compound on p-chloroamphetamine (PCA) induced ejaculation is also assessed by weighing the ejaculates accumulated over 30 mins. A suitable method using conscious rats is described in Renyi (1985) Neuropharmacology, Vol. 24. No. 8, pp 697-704.

Sequence of vasopressin V1a receptors (P30560 whole entry): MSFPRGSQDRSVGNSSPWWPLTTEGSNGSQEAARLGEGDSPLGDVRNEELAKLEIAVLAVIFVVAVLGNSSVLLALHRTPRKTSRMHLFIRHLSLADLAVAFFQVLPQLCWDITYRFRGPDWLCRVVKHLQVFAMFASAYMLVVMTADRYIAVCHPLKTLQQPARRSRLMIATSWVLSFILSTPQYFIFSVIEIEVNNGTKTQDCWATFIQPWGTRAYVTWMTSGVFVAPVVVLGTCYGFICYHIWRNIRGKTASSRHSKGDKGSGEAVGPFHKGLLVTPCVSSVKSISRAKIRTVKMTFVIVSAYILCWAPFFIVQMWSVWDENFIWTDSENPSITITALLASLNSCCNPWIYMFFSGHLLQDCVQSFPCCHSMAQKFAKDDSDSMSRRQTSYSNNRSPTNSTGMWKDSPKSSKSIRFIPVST

Compound | pKi (oxytocin receptors) | pKi [1] | Plasma conc [2] [nM] | other effects on copulatory behaviour [3] | increase of ejaculatory latency ([3]; P<0.05 vs vehicle) [%] | Ejaculatory latency ([3]; plasma conc ~30 nM, mean ± sem, n = 8) | time taken for the rats to achieve erection ([4]; anaesthetised rats, PCA) | Ejaculation delayed (near maximal effect) ([4]; free plasma concentration 30.9 nM, intravenous infusion, anaesthetised rats) [%] | ejaculation and penile erection, in words ([4]; plasma conc 11.4 nM and 30.9 nM) | effect on PCA-induced ejaculation ([4]; plasma concentration of 9-31 nM, anaesthetised rats)
COc1cc(OC2CCN(C(C)=O)CC2)ccc1C(=O)N1CCC(N2C(=O)OCc3ccccc32)CC1 [L-371,257] | 7.72 | 8.43 | ~30 | no other significant effects | 67 | 266 s and 266.4 ± 30.9 s | – | – | – | –
COC1CCN(Cc2nnc(C3CCN(c4ccccn4)CC3)n2Cc2ccccc2)CC1 [Compound 1, 4-[4-Benzyl-5-(4-methoxy-piperidin-1-ylmethyl)-4H-[1,2,4]triazol-3-yl]-3,4,5,6-tetrahydro-2H-[1,2′]bipyridinyl] | – | – | – | – | – | – | not significantly affected | 100 | * At both of these concentrations Compound 1 delayed ejaculation without affecting penile erection. | significantly delayed

Source: patent US20050026810A1, “Treatment of male sexual dysfunction” (Pfizer Inc., priority 2003, published 2005)
